Results as given in PMC11054143, “^68Ga-DOTA-D-Alanine-BoroPro Radiotracer for Imaging of the Fibroblast Activation Protein in Malignant and Non-Malignant Diseases” (Pharmaceutics, 2024).

Molecular target: T1, fibroblast activation protein (FAP) (Homo sapiens, UniProt Q12884)
T1 sequence (Q12884 1-760): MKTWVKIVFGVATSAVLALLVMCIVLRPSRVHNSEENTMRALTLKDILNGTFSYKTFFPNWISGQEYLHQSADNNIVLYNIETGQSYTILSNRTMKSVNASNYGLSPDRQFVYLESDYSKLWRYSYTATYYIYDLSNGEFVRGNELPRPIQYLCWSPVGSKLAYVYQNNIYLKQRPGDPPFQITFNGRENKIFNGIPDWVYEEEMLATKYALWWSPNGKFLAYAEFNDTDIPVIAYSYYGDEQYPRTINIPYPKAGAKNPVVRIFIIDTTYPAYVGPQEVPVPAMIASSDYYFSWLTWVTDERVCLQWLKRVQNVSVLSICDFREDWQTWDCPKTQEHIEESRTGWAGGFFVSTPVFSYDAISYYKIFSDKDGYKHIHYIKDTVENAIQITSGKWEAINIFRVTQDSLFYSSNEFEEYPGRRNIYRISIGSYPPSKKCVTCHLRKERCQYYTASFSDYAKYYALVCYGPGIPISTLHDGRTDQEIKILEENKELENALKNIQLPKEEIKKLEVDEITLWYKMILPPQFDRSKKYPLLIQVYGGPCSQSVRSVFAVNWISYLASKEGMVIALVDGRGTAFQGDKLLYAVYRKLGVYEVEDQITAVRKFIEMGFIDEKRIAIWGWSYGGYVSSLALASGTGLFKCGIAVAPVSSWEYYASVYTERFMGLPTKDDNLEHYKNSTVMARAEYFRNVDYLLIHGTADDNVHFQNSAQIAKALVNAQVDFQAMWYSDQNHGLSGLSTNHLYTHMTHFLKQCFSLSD
Assay: unlabelled competitor ([…] concentrations) displacing […]-iFAP from HCT116 cells
Type: cell-based

C[C@H](NC(=O)c1ccc(NNC(=S)Nc2ccc(CC3CN(CC(=O)O)CCN(CC(=O)O)CCN(CC(=O)O)CCN3CC(=O)O)cc2)nc1)C(=O)N1CCC[C@@H]1B(O)O (stereo partly drawn) [DOTA-iFAP, 2,2′,2″,2‴-(2-(4-(2-(5-(((S)-1-((S)-2-boronopyrrolidin-1-yl)-1-oxopropan-2-yl)carbamoyl)pyridin-2-yl)hydrazine-1-carbothioamido)benzyl)-1,4,7,10-tetraazacyclododecane-1,4,7,10-tetrayl)tetraacetic acid]
IC50: 0.57 nM
